Consider one compound from publication PMC6750704 (Journal of medicinal chemistry, 2019).

The experiment has as its system paradoxical MEK/ERK pathway activation in NRAS Q61K Sbcl2 melanoma cells. Kind of experiment: Vemurafenib induced paradoxical MEK/ERK activation, Western blotting. The format is cell-based, human. As to conditions: 1 μM, control peptide treated Sbcl2 cells. For orientation: In western blotting, separated proteins are transferred to a membrane and probed.

Turning to `CCCS(=O)(=O)Nc1ccc(F)c(C(=O)c2c[nH]c3ncc(-c4ccc(Cl)cc4)cc23)c1F` [vemurafenib], the “effect on pMEK and pERK levels” value is reported as “induces paradoxical MEK/ERK pathway activation”.
